Non-standard residues stand in square brackets, D forms with d. No end group written: not given here. pT = C[C@@H](OP(=O)(O)O)[C@H](N)C(=O)O; pS = N[C@@H](COP(=O)(O)O)C(=O)O
Legend:
[1] = system: arrestin-1 (F85A, F197A); experiment: Limited trypsin digestion of arrestin-1 in presence of peptide; assay type: biochemical, bovine; conditions: arrestin:peptide 1:1.2, 35 °C, SDS PAGE
From the text: Synthesized cDNAs of bovine arrestin-1, human arrestin-2 and human arrestin-3 were ordered from Genewiz, amplified by PCR and cloned (Supplementary Information Table 5) into the pET-15b vector (Novagen), using the Gibson Assembly protocol. The constructs contained an N-terminal hexa histidine tag linked by a linker that contained a Tobacco Etch Virus cleavage site (TEV; […]). PCR was used to introduce the monomerizing arrestin-1 mutations (F85A, F197A)[58]. Note that this mutant was employed for fluorescence anisotropy, trypsin digestion, and NMR experiments. Wild-type arrestin-2 and -3 were used for fluorescence anisotropy and trypsin digestion experiments. […] The arrestin-1 in this construct had the wild-type sequence. Note that this construct differs slightly from that previously published[59],[60] and was optimized for purification. We verified the functionality of this fusion construct using the standard centrifugal pull-down assay using phosphorylated rhodopsin in native ROS membranes.
Arrestin (60 µg) was mixed at a 1 to 1.2 molar ratio with peptide and preincubated at RT for 5 min before 1 μl of 0.15 mg/ml trypsin stock was added. The enzymatic digestion was carried out at 35 °C (20 mM Bis-Tris propane pH 7.0, 150 mM NaCl, 10 mM 2‑Mercaptoethanol and 2 mM EDTA). At certain time points (5, 15, 30, 60, 90 min), 5 μl aliquots were quenched with heat incubation in the presence of 20 μl SDS loading buffer (95 °C, 5 min) and then subjected to SDS PAGE. Bands were visualized with InstantBlue (Expedeon).

[2] = system: arrestin-1; experiment: [15N,1H]TROSY NMR titration of arrestin-1 with peptide; assay type: binding, bovine; conditions: peptide:arrestin-1 up to 10:1
Protocol: ^2H,^15N,^13C-labeled arrestin-1 aliquots were thawed quickly under running water, transferred to 30 kDa-cutoff Vivaspin (0.5 ml, Sartorius) centrifugal spin concentrators, and concentrated to approximately 600 μM. The concentrator was immediately transferred into a beaker filled with 400 ml of NMR buffer 1 or 2 (see below) carried by a floatation device. The dialysis was performed at 4 °C overnight. On the next day the concentration was determined by UV absorbance at 280 nm (molar extinction coefficient 26,360/mol/cm). […] The dialysis was performed at 4 °C overnight, and the peptide concentration was determined by its absorbance at 205 nm (molar extinction coefficient: 54,310/mol/cm). […]
NMR measurements were performed on Bruker Avance III-HD 600 or 900 MHz spectrometer using a CTCI cryo-cooled probehead. […] Pulse lengths were calibrated for ^1H manually and for ^13C/^15N using an in-house automated procedure. pH was monitored using the position of the phosphate signal in NMR buffer 2 as an internal reference and varied by no more than 0.03 pH units during peptide titration experiments. [^15N,^1H]TROSY experiments were recorded with internal ETH pulse sequences, whereas 3D triple resonance TROSY experiments were recorded using the manufacturer’s pulse sequences. […]

[3] = biological target: fully phosphorylated peptide 7P of the bovine rhodopsin C-terminus (bovine); experiment: fluorescence polarisation; fluorescence anisotropy; 20 nM fluorescently labelled peptide, 11-step serial dilution of arrestin; 20 mM Bis-Tris propane pH 7.0, 150 mM NaCl, 8 mM 2-mercaptoethanol, 2% BSA, 0.02% Tween-20; RT; one-to-one binding model
[4] = biological target: bovine arrestin-1 with the monomerizing mutations F85A, F197A (bovine, UniProt P08168 2-404, F85A | F197A); experiment: FP

“CDDEASTTVSKTETSQVAPA [0P, nonphosphorylated peptide analog of the bovine rhodopsin C-terminus with N-terminal cysteine]” was tested, and the “limited trypsin digest pattern of arrestin-1 (conformational change, C-tail displacement)” value [1] was “three major bands” and the “NMR chemical shift / peak changes in arrestin-1 (in words)” value [2] was “some minor changes in peak intensity”.

In the case of “bovine arrestin-1 with the monomerizing mutations F85A, F197A (from UniProt P08168 2-404) (natural protein)”, the Kd [3] is reported as under 250 µM.

B1: tri-phosphorylated peptide 3Pd of the bovine rhodopsin C-terminus (peptide)
chain: C(fluorescein‑5‑maleimide)DDEASTTVSK[pT]ET[pS]QVAPA
modifications: also: third phosphorylation site not given here
In the case of B1, the Kd [4] is reported as 94 µM.

Reference: article PMC6424980, “Distinct G protein-coupled receptor phosphorylation motifs modulate arrestin affinity and activation and global conformation” (Nature Communications, 2019)
